These results are taken from PMC6274350, “Design, Synthesis, and Cytotoxicity of 5-Fluoro-2-methyl-6-(4-aryl-piperazin-1-yl) Benzoxazoles” (Molecules, 2016).

Data set [1] can be described thus: Visible solubility / precipitation of test compounds in cell-culture media. In kind it is physicochemical. Conditions: for Precipitation in cell-culture media: 50 µM, no conclusion on cytotoxicity possible. How it is done: Since the majority of test compound solutions with concentrations above 50 µM precipitated in cell-culture media, we performed cytotoxicity assays for healthy and cancer cells at 50 µM.

Data set [2] is described as follows: CellTiter-Glo luminescent cell viability (cytotoxicity) assay on hepatocytes. In kind it is cell-based, human. The conditions noted are these: human, Liver cells, hepatocytes (HepaRG), 24 h, vs DMSO vehicle. The procedure:
(§1) The cytotoxicity of prepared benzoxazoles (7a–j) and intermediates (6a–j and 9) were measured by applying the CellTiter-Glo® luminescent cell proliferation assay (G755A, Promega, Madison, WI, USA). This method permits the determination of viable cells numbers in the culture based on quantitation of the ATP present, which denotes the presence of metabolically active cells. In vitro cytotoxicity analysis was overall performed following the protocol as described in “Guidance Document on Using in Vitro Data to Estimate in Vivo Starting Doses for Acute Toxicity Based on Recommendations” [18]. Human A-549 cells are human lung cancer epithelial cells, which were chosen as the tumor model, whereas the HepaRG™ cell line is a classic hepatic cell line that retains many characteristics of primary human hepatocytes. HepaRG™ cells are terminally differentiated.
(§2) Human cell cultures: Hepatocytes (HepaRG^TM cells) were obtained from Life Technologies, and were cultivated in William’s E Medium (Gibco, Life Technologies, Waltham, MA, USA) and supplemented with 1x GlutaMAX™ plus 1x HepaRG^TM General Purpose Medium Supplement in 25-cm^2 or 75-cm^2 flasks (TPP, Trasadingen, Switzerland) at 37 °C and 5% CO2. Lung cancer epithelial cells A-549 were propagated in Epilife Medium (Gibco, Life Technologies; MEPICF) and combined with CaCl2 and 1x-growth-supplement containing penicillin and streptomycin (Gibco, Life Technologies). For sub-culturing, cells were split at a ratio of 1:4 to 1:8. For cryopreservation, cells were frozen in 10% DMSO in liquid nitrogen.
(§3) Human cytotoxicity assay: Human hepatocytes or human lung carcinoma cells were seeded into sterile black clear-bottomed polystyrene Corning® CellBind® 96-well plates (Munich, Germany) at a density of 20,000 cells/well after calculating cell numbers from trypsinized samples in a classical Neubauer Improved hemocytometer (VWR, Munich, Germany). The cells were grown for 24 h at 37 °C in a 5% CO2 atmosphere in Epilife medium (keratinocytes) or William′s E medium (hepatocytes). After a 24-h recovery period, media were removed from the wells by aspiration. The cells were then immediately exposed to the respective test compounds or reference antibiotics (prepared in advance in 100 µL of the same media) for 24 h 37 °C with 5% CO2. The concentration tested ranged from 0.1 µM to 500 µM (0.1 µM, 1 µM, 10 µM, 50 µM, 100 µM, 250 µM, and 500 µM) and was formulated as a 100× concentrated stock each, resulting in a final constant DMSO concentration of 1% per 100-µL sample volume. Test series were each performed in triplicate, and additionally included a vehicle reference (DMSO only) plus another internal control for evaluating overall assay performance. Additionally, cells were visually examined under a light microscope for any morphological abnormalities relative to the untreated cells. Subsequently, cell viability, as an indicator of potential cytotoxicity, was measured by applying the CellTiter-Glo® luminescent cell proliferation assay (G755A, Promega, Madison, WI, USA). This method permits the determination of the number of viable cells in culture based on quantitation of the ATP present, which denotes the presence of metabolically active cells. To this end, 100 µL (equal to the volume of culture medium) of the kit-provided CellTiter-Glo® reagent (reconstituted by transferring the thawed CellTiter-Glo® buffer to the lyophilized enzyme and substrate mixture) was directly added to each well with a repetitive dispensing pipette. The contents were then mixed for 2 min at room temperature on an orbital minishaker (IKA® MS3 digital, Staufen, Germany) at 450 rpm to induce efficient cell lysis, and then further incubated for 10 min at room temperature for stabilization of the resultant luminescent signal. […]

Data set [3] deals with A-549 lung carcinoma cells. Description: CellTiter-Glo luminescent cell viability (cytotoxicity) assay on lung cancer cells. In kind it is cell-based, human. The conditions noted are these: Homo sapiens, A549, Lung cancer cells (A-549), 24 h, vs DMSO vehicle. How it is done:
as §1, §2, §3

Data set [4] relates to HepaRG cells (liver cells, hepatocytes). Put plainly: CellTiter-Glo luminescent cell viability (cytotoxicity) assay on hepatocytes. In kind it is cell-based, human. The procedure: as §1, §2, §3

`Cc1nc2cc(F)c(N3CCN(c4ccccc4)CC3)cc2o1` [Compound 7a, 5-Fluoro-2-methyl-6-(4-phenylpiperazin-1-yl)-benzo[d]oxazole] gave a melting point of 153 to 154 °C. The “Precipitation in cell-culture media” value in data set [1] is “precipitation problem”. Further, in data set [2], the viability at 24 h, 0.1 µM amounted to 101%; the viability at 24 h, 1 µM is 97%; the viability at 24 h, 10 µM was found to be 94%. Besides, in data set [3], the viability at 0.1 µM was found to be 101%, the viability at 1 µM was 96%, the viability at 10 µM is 90% and the viability at 50 µM stood at 60%.

`Cc1nc2cc(F)c(N3CCN(c4cccc(O)c4)CC3)cc2o1` [Compound 7h, 3-[4-(5-Fluoro-2-methyl-benzooxazol-6-yl)-piperazin-1-yl]-phenol] displayed a melting point of 211 to 213 °C. Further, the “Precipitation in cell-culture media” value in data set [1] was “precipitation problem”. Also, in data set [2], the viability at 24 h, 0.1 µM came out at 100%; the viability at 24 h, 1 µM is 102%; the viability at 24 h, 10 µM came out at 99%. For the same compound, in data set [3], the viability at 0.1 µM came out at 100%, the viability at 1 µM worked out at 93%, the viability at 10 µM was 97% and the viability at 50 µM came to 95%. Also, in data set [3], the viability at 100 µM came out at 90%.

In the case of `COc1cccc(N2CCN(c3cc(O)c([N+](=O)[O-])cc3F)CC2)c1` [Compound 6i, 4-Fluoro-5-[4-(3-methoxy-phenyl)-piperazin-1-yl]-2-nitro-phenol], the melting point is 148 to 149 °C. The “Precipitation in cell-culture media” value in data set [1] was “precipitation problem”. For the same compound, in data set [2], the viability at 24 h, 0.1 µM amounted to 79%; the viability at 24 h, 1 µM came to 95%; the viability at 24 h, 10 µM came to 99%. In data set [3], the viability at 0.1 µM is 95%, the viability at 1 µM worked out at 93%, the viability at 10 µM was determined as 96% and the viability at 50 µM is 69%.

The compound `Cc1ccc(N2CCN(c3cc4oc(C)nc4cc3F)CC2)cc1` [Compound 7b, 5-Fluoro-2-methyl-6-(4-p-tolyl-piperazin-1-yl)-benzooxazole] registered a melting point of 168 to 170 °C. The “Toxicity to healthy cells versus lung cancer cells” value in data set [4] (50 µM, HepaRG vs A-549) was “more toxic to healthy cells compared with lung cancer cells”. Besides, in data set [2], the viability at 24 h, 0.1 µM is 105%; the viability at 24 h, 1 µM came to 99%; the viability at 24 h, 10 µM was found to be 91%; the viability at 24 h, 50 µM stood at 63%. In addition, in data set [2], the viability at 24 h, 100 µM is 60%. Also, in data set [3], the viability at 0.1 µM came to 92%, the viability at 1 µM stood at 94%, the viability at 10 µM came out at 92% and the viability at 50 µM was 87%. In data set [3], the viability at 100 µM was 75%.

Compound `Cc1nc2cc(F)c(N3CCN(c4ccccc4O)CC3)cc2o1` [Compound 7f, 2-[4-(5-Fluoro-2-methyl-benzooxazol-6-yl)-piperazin-1-yl]-phenol] yielded a melting point of 172 to 173 °C. For the same compound, the “Solubility at test concentrations” value in data set [1] (cell-culture media, 0.1-500 µM) was “completely soluble at all concentrations”. In data set [2], the viability at 24 h, 0.1 µM was determined as 106%; the viability at 24 h, 1 µM turned out to be 97%; the viability at 24 h, 10 µM worked out at 86%; the viability at 24 h, 50 µM was 59%. Further, the viability at 24 h, 100 µM in data set [2] came to 60%. Further, the viability at 24 h, 250 µM in data set [2] (250 µM) turned out to be 53%. Moreover, the viability at 24 h, 500 µM in data set [2] (500 µM) worked out at 54%. In data set [3], the viability at 0.1 µM turned out to be 103%, the viability at 1 µM amounted to 99%, the viability at 10 µM was 91% and the viability at 50 µM was 91%. In addition, the viability at 100 µM in data set [3] worked out at 95%. Besides, the viability at 250 µM in data set [3] (250 µM) is 83%. The viability at 500 µM in data set [3] (500 µM) turned out to be 63%.

Compound `COc1cccc2c1C(=O)c1c(O)c3c(c(O)c1C2=O)C[C@@](O)(C(=O)CO)C[C@@H]3O[C@H]1C[C@H](N)[C@H](O)[C@H](C)O1` [doxorubicine, reference compound] registered an IC50 in data set [4] (Homo sapiens, HepaRG cells, standard) of 5.1 µM.

Take `Cc1nc2cc(F)c(N3CCN(c4ccccc4F)CC3)cc2o1` [Compound 7g, 5-Fluoro-6-(4-(2-fluorophenyl)-piperazin-1-yl)-2-methylbenzo[d]oxazole]: the melting point was 157 to 158 °C. For the same compound, the “Precipitation in cell-culture media” value in data set [1] is recorded as “precipitation problem”. Further, in data set [2], the viability at 24 h, 0.1 µM was found to be 96%; the viability at 24 h, 1 µM stood at 106%; the viability at 24 h, 10 µM came out at 87%. In addition, in data set [3], the viability at 0.1 µM stood at 96%, the viability at 1 µM was 92%, the viability at 10 µM was 92% and the viability at 50 µM was 73%. The viability at 100 µM in data set [3] came out at 63%.

Compound `Cc1nc2cc(F)c(N3CCN(c4ccc(F)cc4)CC3)cc2o1` [Compound 7d, 5-Fluoro-6-[4-(4-fluoro-phenyl)-piperazin-1-yl]-2-methyl-benzooxazole] gave a melting point of 148 to 150 °C. Moreover, the “Precipitation in cell-culture media” value in data set [1] is “precipitation problem”. In addition, in data set [2], the viability at 24 h, 0.1 µM is 91%; the viability at 24 h, 1 µM came to 94%; the viability at 24 h, 10 µM was determined as 85%. Moreover, in data set [3], the viability at 0.1 µM amounted to 98%, the viability at 1 µM worked out at 98%, the viability at 10 µM was 87% and the viability at 50 µM amounted to 87%. In addition, in data set [3], the viability at 100 µM was found to be 82%.

For `COc1cccc(N2CCN(c3cc4oc(C)nc4cc3F)CC2)c1` [Compound 7i, 5-Fluoro-6-[4-(3-methoxy-phenyl)-piperazin-1-yl]-2-methyl-benzooxazole], the melting point was 124 to 125 °C. Besides, the “Precipitation in cell-culture media” value in data set [1] is reported as “precipitation problem”. In data set [2], the viability at 24 h, 0.1 µM was 100%; the viability at 24 h, 1 µM stood at 102%; the viability at 24 h, 10 µM worked out at 91%. In data set [3], the viability at 0.1 µM is 105%, the viability at 1 µM worked out at 102%, the viability at 10 µM is 88% and the viability at 50 µM was determined as 76%. Moreover, in data set [3], the viability at 100 µM amounted to 75%.
